Assay results from BindingDB's records for doi:10.1016/j.bmcl.2019.04.027 (Gilead Sciences, 2019).

Tests used:
[1] = Inhibition of NS5A in HCV genotype 1a H77 infected in human HuH7 replicon cells assessed as reduction in viral replication after 3 days by luciferase reporter gene assay
[2] = Inhibition of NS5A L31M mutant in HCV genotype 2a J6 (M31) infected in human HuH7 replicon cells assessed as reduction in viral replication after 3 days by luciferase reporter gene assay
[3] = Inhibition of NS5A in HCV genotype 2b MD2b-1 infected in human HuH7 replicon cells assessed as reduction in viral replication after 3 days by luciferase reporter gene assay
[4] = Inhibition of NS5A in HCV genotype 2a JFH1 infected in human HuH7 replicon cells assessed as reduction in viral replication after 3 days by luciferase reporter gene assay
[5] = Inhibition of NS5A in HCV genotype 3a S52 infected in human HuH7 transient chimeric replicon cells assessed as reduction in viral replication after 3 days by luciferase reporter gene assay
[6] = Inhibition of NS5A in HCV genotype 4a ED43 infected in human HuH7 replicon cells assessed as reduction in viral replication after 3 days by luciferase reporter gene assay
[7] = Inhibition of NS5A in HCV genotype 1b Con1 infected in human HuH7 replicon cells assessed as reduction in viral replication after 3 days by luciferase reporter gene assay
[8] = Inhibition of NS5A Q30E mutant in HCV genotype 1a infected in human HuH7 replicon cells assessed as reduction in viral replication after 3 days by luciferase reporter gene assay
[9] = Inhibition of NS5A Y93H mutant in HCV genotype 1a infected in human HuH7 replicon cells assessed as reduction in viral replication after 3 days by luciferase reporter gene assay
[10] = Inhibition of NS5A in wild type HCV genotype 1a infected in human HuH7 replicon cells assessed as reduction in viral replication after 3 days by luciferase reporter gene assay
[11] = Inhibition of NS5A Q30H mutant in HCV genotype 1a infected in human HuH7 replicon cells assessed as reduction in viral replication after 3 days by luciferase reporter gene assay
[12] = Inhibition of NS5A in HCV genotype 4a ED43 infected in human HuH7 transient chimeric replicon cells assessed as reduction in viral replication after 3 days by luciferase reporter gene assay
[13] = Inhibition of NS5A Q30R mutant in HCV genotype 1a infected in human HuH7 replicon cells assessed as reduction in viral replication after 3 days by luciferase reporter gene assay
[14] = Inhibition of NS5A L31M mutant in HCV genotype 2a JFH1 (M31) infected in human HuH7 replicon cells assessed as reduction in viral replication after 3 days by luciferase reporter gene assay
[15] = Inhibition of NS5A Y93C mutant in HCV genotype 1a infected in human HuH7 replicon cells assessed as reduction in viral replication after 3 days by luciferase reporter gene assay
[16] = Inhibition of NS5A in wild type HCV genotype 1b infected in human HuH7 replicon cells assessed as reduction in viral replication after 3 days by luciferase reporter gene assay
[17] = Inhibition of NS5A Y93H mutant in HCV genotype 1b infected in human HuH7 replicon cells assessed as reduction in viral replication after 3 days by luciferase reporter gene assay
[18] = Inhibition of NS5A L31M mutant in HCV genotype 1a infected in human HuH7 replicon cells assessed as reduction in viral replication after 3 days by luciferase reporter gene assay
[19] = Inhibition of NS5A M28T mutant in HCV genotype 1a infected in human HuH7 replicon cells assessed as reduction in viral replication after 3 days by luciferase reporter gene assay
[20] = Inhibition of NS5A in HCV genotype 5a SA13 infected in human HuH7 replicon cells assessed as reduction in viral replication after 3 days by luciferase reporter gene assay
[21] = Inhibition of NS5A in HCV genotype 6e D88 infected in human HuH7 replicon cells assessed as reduction in viral replication after 3 days by luciferase reporter gene assay
[22] = Inhibition of NS5A in HCV genotype 6a HK6 infected in human HuH7 replicon cells assessed as reduction in viral replication after 3 days by luciferase reporter gene assay
[23] = Inhibition of NS5A L31M mutant in HCV genotype 2a JFH1 infected in human HuH7 replicon cells assessed as reduction in viral replication after 3 days by luciferase reporter gene assay
[24] = Inhibition of NS5A in HCV genotype 2a JFH1 (L31) infected in human HuH7 replicon cells assessed as reduction in viral replication after 3 days by luciferase reporter gene assay
[25] = Inhibition of NS5A L31M mutant in patient derived HCV genotype 2b MD2b-1 infected in human HuH7 replicon cells assessed as reduction in viral replication after 3 days by luciferase reporter gene assay
[26] = Inhibition of NS5A in HCV genotype 2a J6 infected in human HuH7 replicon cells assessed as reduction in viral replication after 3 days by luciferase reporter gene assay
[27] = Inhibition of NS5A in HCV genotype 3a S52 infected in human HuH7 replicon cells assessed as reduction in viral replication after 3 days by luciferase reporter gene assay

## COC[C@H]1C[C@@H](c2ncc(-c3ccc4c(c3)COc3cc5c(ccc6nc([C@@H]7C[C@H](C)CN7C(=O)[C@@H](NC(=O)OC)C(C)C)[nH]c65)cc3-4)[nH]2)N(C(=O)[C@H](NC(=O)OC)c2ccccc2)C1
[1]
  EC50: 0.013 nM
[2]
  EC50: 0.014 nM
[3]
  EC50: 0.015 nM
[4]
  EC50: 0.006 nM
[5]
  EC50: 0.025 nM
[6]
  EC50: 0.011 nM
[7]
  EC50: 0.017 nM

## COC[C@H]1C[C@@H](c2nc3ccc4cc5c(cc4c3[nH]2)OCc2cc(-c3cnc([C@@H]4CCCN4C(=O)[C@@H](NC(=O)OC)C(C)C)[nH]3)ccc2-5)N(C(=O)[C@@H](NC(=O)OC)C(C)C)C1
[8]
  EC50: 10 nM
[9]
  EC50: 4.7 nM
[10]
  EC50: 0.037 nM
[11]
  EC50: 0.15 nM
[1]
  EC50: 0.021 nM
[12]
  EC50: 0.014 nM
[2]
  EC50: 0.28 nM
[3]
  EC50: 0.135 nM
[13]
  EC50: 0.22 nM
[14]
  EC50: 0.008 nM
[15]
  EC50: 0.22 nM
[16]
  EC50: 0.026 nM
[17]
  EC50: 0.086 nM
[18]
  EC50: 0.37 nM
[5]
  EC50: 0.024 nM
[7]
  EC50: 0.026 nM
[19]
  EC50: 0.19 nM

## COC(=O)N[C@H](C(=O)N1CCC[C@H]1c1ncc(-c2cc3c4c(c2)OCc2cc(-c5cnc([C@@H]6CCCN6C(=O)[C@@H](NC(=O)OC)C(C)C)[nH]5)cc(c2-4)OC3)[nH]1)C(C)C
[20]
  EC50: 0.056 nM
[21]
  EC50: 1.16 nM
[1]
  EC50: 0.029 nM
[12]
  EC50: 0.029 nM
[2]
  EC50: 8.81 nM
[22]
  EC50: 0.016 nM
[23]
  EC50: 5.9 nM
[24]
  EC50: 0.007 nM
[25]
  EC50: 1.77 nM
[5]
  EC50: 0.055 nM
[7]
  EC50: 0.022 nM

## COC[C@H]1C[C@@H](c2ncc(-c3ccc4c(c3)COc3cc5c(ccc6nc([C@@H]7CCCN7C(=O)[C@@H](NC(=O)OC)C(C)C)[nH]c65)cc3-4)[nH]2)N(C(=O)[C@H](NC(=O)OC)c2ccccc2)C1
[1]
  EC50: 0.011 nM
[2]
  EC50: 0.013 nM
[3]
  EC50: 0.009 nM
[4]
  EC50: 0.006 nM
[5]
  EC50: 0.017 nM
[6]
  EC50: 0.007 nM
[7]
  EC50: 0.019 nM

## COC[C@H]1C[C@@H](c2ncc(-c3ccc4c(c3)COc3cc5c(ccc6nc([C@@H]7C[C@H]8C[C@@H]8N7C(=O)[C@@H](NC(=O)OC)C(C)C)[nH]c65)cc3-4)[nH]2)N(C(=O)[C@H](NC(=O)OC)c2ccccc2)C1
[1]
  EC50: 0.01 nM
[2]
  EC50: 0.113 nM
[3]
  EC50: 0.046 nM
[4]
  EC50: 0.006 nM
[5]
  EC50: 0.018 nM
[6]
  EC50: 0.009 nM
[7]
  EC50: 0.011 nM

## CCO[C@H]1C[C@@H](c2nc3ccc4cc5c(cc4c3[nH]2)OCc2cc(-c3cnc([C@@H]4CCCN4C(=O)[C@@H](NC(=O)OC)C(C)C)[nH]3)ccc2-5)N(C(=O)[C@@H](NC(=O)OC)C(C)C)C1
[1]
  EC50: 0.015 nM
[12]
  EC50: 0.02 nM
[2]
  EC50: 0.378 nM
[3]
  EC50: 0.265 nM
[14]
  EC50: 0.007 nM
[5]
  EC50: 0.048 nM
[7]
  EC50: 0.018 nM

## COC[C@H]1C[C@@H](c2ncc(-c3cc4c5c(c3)OCc3cc(-c6cnc([C@@H]7CC[C@H](C)N7C(=O)[C@@H](NC(=O)OC)C(C)C)[nH]6)cc(c3-5)OC4)[nH]2)N(C(=O)[C@H](NC(=O)OC)c2ccccc2)C1
[26]
  EC50: 0.48 nM
[20]
  EC50: 0.081 nM
[21]
  EC50: 0.11 nM
[1]
  EC50: 0.016 nM
[22]
  EC50: 0.022 nM
[3]
  EC50: 0.29 nM
[5]
  EC50: 0.12 nM
[6]
  EC50: 0.013 nM
[7]
  EC50: 0.016 nM

## COC(=O)N[C@H](C(=O)N1CCC[C@H]1c1ncc(-c2ccc3c(c2)COc2cc4c(ccc5nc([C@@H]6CC[C@H](C)N6C(=O)[C@@H](NC(=O)OC)C(C)C)[nH]c54)cc2-3)[nH]1)C(C)C
[1]
  EC50: 0.011 nM
[2]
  EC50: 0.234 nM
[14]
  EC50: 0.019 nM
[27]
  EC50: 0.077 nM
[6]
  EC50: 0.02 nM
[7]
  EC50: 0.018 nM

## COC[C@H]1C[C@@H](c2ncc(-c3ccc4c(c3)COc3cc5c(ccc6nc([C@@H]7C[C@H](COC)CN7C(=O)[C@@H](NC(=O)OC)C(C)C)[nH]c65)cc3-4)[nH]2)N(C(=O)[C@@H](NC(=O)OC)C(C)C)C1
[1]
  EC50: 0.024 nM
[12]
  EC50: 0.036 nM
[2]
  EC50: 0.061 nM
[3]
  EC50: 0.18 nM
[14]
  EC50: 0.01 nM
[5]
  EC50: 0.206 nM
[7]
  EC50: 0.034 nM

## COC(=O)N[C@H](C(=O)N1[C@@H](C)CC[C@H]1c1ncc(-c2ccc3c(c2)COc2cc4c(ccc5nc([C@@H]6CC[C@H](C)N6C(=O)[C@@H](NC(=O)OC)C(C)C)[nH]c54)cc2-3)[nH]1)C(C)C
[1]
  EC50: 0.008 nM
[12]
  EC50: 0.008 nM
[2]
  EC50: 0.28 nM
[3]
  EC50: 0.063 nM
[14]
  EC50: 0.014 nM
[5]
  EC50: 0.02 nM
[7]
  EC50: 0.012 nM

## COC(=O)N[C@H](C(=O)N1CCC[C@H]1c1ncc(-c2ccc3c(c2)COc2cc4c(ccc5nc([C@@H]6C[C@H](C)CN6C(=O)[C@@H](NC(=O)OC)C(C)C)[nH]c54)cc2-3)[nH]1)C(C)C
[1]
  EC50: 0.011 nM
[12]
  EC50: 0.011 nM
[2]
  EC50: 0.443 nM
[3]
  EC50: 0.132 nM
[14]
  EC50: 0.007 nM
[5]
  EC50: 0.018 nM
[7]
  EC50: 0.018 nM

## COC[C@H]1C[C@@H](c2nc3ccc4cc5c(cc4c3[nH]2)OCc2cc(-c3cnc([C@@H]4CC[C@H](C)N4C(=O)[C@@H](NC(=O)OC)C(C)C)[nH]3)ccc2-5)N(C(=O)[C@@H](NC(=O)OC)C(C)C)C1
[1]
  EC50: 0.011 nM
[12]
  EC50: 0.015 nM
[2]
  EC50: 0.067 nM
[3]
  EC50: 0.157 nM
[14]
  EC50: 0.012 nM
[5]
  EC50: 0.061 nM
[7]
  EC50: 0.017 nM

## COC[C@H]1C[C@@H](c2ncc(-c3ccc4c(c3)COc3cc5c(ccc6nc([C@@H]7C[C@@H]8C[C@H]8N7C(=O)[C@@H](NC(=O)OC)C(C)C)[nH]c65)cc3-4)[nH]2)N(C(=O)[C@H](NC(=O)OC)c2ccccc2)C1
[1]
  EC50: 0.013 nM
[2]
  EC50: 0.021 nM
[3]
  EC50: 0.028 nM
[4]
  EC50: 0.007 nM
[5]
  EC50: 0.025 nM
[6]
  EC50: 0.009 nM
[7]
  EC50: 0.02 nM

## COC[C@H]1C[C@@H](c2nc3ccc4cc5c(cc4c3[nH]2)OCc2cc(-c3cnc([C@@H]4C[C@H](C)CN4C(=O)[C@@H](NC(=O)OC)C(C)C)[nH]3)ccc2-5)N(C(=O)[C@@H](NC(=O)OC)C(C)C)C1
[1]
  EC50: 0.014 nM
[12]
  EC50: 0.022 nM
[2]
  EC50: 0.106 nM
[3]
  EC50: 0.166 nM
[14]
  EC50: 0.009 nM
[5]
  EC50: 0.058 nM
[7]
  EC50: 0.019 nM
